Columns and labels:
[1] = molecular target: T1, α7-nicotinic acetylcholine receptor (Homo sapiens, UniProt P36544); assay: two-electrode voltage clamp of ACh currents in Xenopus oocytes expressing the human receptor; assay type: cell-based
T1 construct: gene CHRNA7

α7-nACh receptor = molecular target: T2, α7-nACh receptor (Rattus norvegicus, UniProt Q05941); assay type: cell-based
T2 construct: gene Chrna7
T2 sequence (Q05941 23-502): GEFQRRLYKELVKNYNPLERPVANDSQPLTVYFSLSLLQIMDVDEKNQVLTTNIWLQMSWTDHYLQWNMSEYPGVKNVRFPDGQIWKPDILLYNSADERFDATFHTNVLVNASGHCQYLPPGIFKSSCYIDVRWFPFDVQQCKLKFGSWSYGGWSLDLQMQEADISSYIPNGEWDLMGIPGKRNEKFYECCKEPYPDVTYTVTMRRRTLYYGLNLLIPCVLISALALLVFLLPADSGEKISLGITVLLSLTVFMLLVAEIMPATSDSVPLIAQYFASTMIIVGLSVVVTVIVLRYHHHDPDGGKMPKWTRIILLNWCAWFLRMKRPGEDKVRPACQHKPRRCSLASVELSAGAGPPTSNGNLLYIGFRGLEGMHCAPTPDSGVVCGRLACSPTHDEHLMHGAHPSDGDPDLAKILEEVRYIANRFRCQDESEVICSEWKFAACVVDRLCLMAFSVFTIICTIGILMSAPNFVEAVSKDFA

T1 sequence (P36544 23-502): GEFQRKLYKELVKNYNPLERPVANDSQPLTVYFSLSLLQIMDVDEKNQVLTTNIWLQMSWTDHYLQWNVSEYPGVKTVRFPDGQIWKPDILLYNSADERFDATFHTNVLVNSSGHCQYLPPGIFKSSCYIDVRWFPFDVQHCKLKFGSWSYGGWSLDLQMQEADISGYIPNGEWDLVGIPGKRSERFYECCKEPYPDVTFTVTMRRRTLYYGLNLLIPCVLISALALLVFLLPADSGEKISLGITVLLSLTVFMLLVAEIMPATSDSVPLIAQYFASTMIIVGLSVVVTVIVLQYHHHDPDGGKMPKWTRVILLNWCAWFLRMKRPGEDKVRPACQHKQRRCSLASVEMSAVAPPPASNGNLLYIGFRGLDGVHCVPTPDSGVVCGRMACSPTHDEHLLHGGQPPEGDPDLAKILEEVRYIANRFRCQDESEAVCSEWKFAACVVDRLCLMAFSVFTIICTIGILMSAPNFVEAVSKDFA

## CC1CCC(C(C)C)C(O)C1 (racemic) [menthol]
[1]
  IC50: 32.6 ± 2.3 µM

## O=C(N[C@H]1CN2CCC1CC2)c1ccc(Cl)cc1 [PNU282987]
α7-nACh receptor
  GCaMP5G Ca2+ imaging in PC12 cells (endogenous receptor), 10 μM, blocked by α-bu: activation of the α7-nACh receptor with nicotine or the selective α7-agonist PNU282987 (PNU) was associated with a significant increase

From PMC3720735 (PLoS ONE, 2013)
